Measurements taken from article PMC7614683, “A small molecule PI3Kα activator for cardioprotection and neuroregeneration” (Nature, 2023).
Where two headings read alike, the source gives them in different places.

How the values were obtained:
Test in all cases: SelectScreen Z-LYTE kinase activity assay (SI Table 6)
Assay type in all cases: biochemical
[1] = target: protein kinases of the Z-LYTE panel (Homo sapiens, UniProt P07948)
Experimental: (§1) 133 protein kinases and 7 lipid kinases were counterscreened, with 1938 used at 1 μM, using the Adapta, Lantha and Z-LYTE assays (SelectScreen Kinase Profiling Service; Thermofisher – experimental details of these assays can be found here: https://www.thermofisher.com/uk/en/home/industrial/pharma-biopharma/drug-discovery-development/target-and-lead-identification-and-validation/kinasebiology/kinase-activity-assays.html. The tree represention in KinMap[59] generated courtesy of Cell Signaling Technology, Inc. (www.cellsignal.com). mTORC1 (mTOR/RAPTOR/LST8) protein complex and ATM kinase and substrates were produced as previously described[57],[60]. Screening of 1938 was conducted using SuperSep Phos-Tag 50 μmol/l 100 x 100 x 6.6 mm 17-well (192-18001/199-18011) gels. For ATM assays, 100 nM ATM was incubated for 30 min at 30°C with 5 μM GST-p53 and 1 mM ATP, in the absence or presence of 200 μM 1938 in ATM Kinase Buffer (50 mM HEPES pH 7.5, 100 mM NaCl, 10% glycerol, 2 mM […], 5 mM MgCl2). As a positive control for ATM activation, the same reaction was carried out with 100 nM ATM/5 μM GST-p53/1 mM ATP in the presence of 100 nM Mre11-Rad50-Nbs1 (MRN) complex, a known activator of ATM[61]. For mTORC1 assays, 50 nM mTORC1 complex (mTOR/LST8/RAPTOR) was incubated for 3 h at 30°C with 15 μM 4E-BP1, 10 mM MgCl2 and 250 μM ATP, in the absence or presence of 200 μM 1938. As a ‘positive’ control, a higher concentration (150 nM) of mTORC1 complex (mTOR/LST8/RAPTOR) was incubated for 3 h at 30°C with 15 μM 4E-BP1, 10 mM MgCl2 and 250 μM ATP. Kinase reactions were quenched by addition of SDS-PAGE Loading Buffer (as per manufacturer’s instructions) and freezing at -20°C before being run on the Phos-tag gels at 150 V for 90 min. Gels were then stained using InstantBlue™ Coomassie, and quantified using BioRad Image Lab Software. Kinase assays were carried out in triplicate.

[2] = target: protein kinases of the Z-LYTE panel (Homo sapiens, UniProt P23458)
Experimental: as §1

[3] = target: T1, protein kinases of the Z-LYTE panel (Homo sapiens, UniProt Q9UQB9)
T1 sequence (Q9UQB9 1-309): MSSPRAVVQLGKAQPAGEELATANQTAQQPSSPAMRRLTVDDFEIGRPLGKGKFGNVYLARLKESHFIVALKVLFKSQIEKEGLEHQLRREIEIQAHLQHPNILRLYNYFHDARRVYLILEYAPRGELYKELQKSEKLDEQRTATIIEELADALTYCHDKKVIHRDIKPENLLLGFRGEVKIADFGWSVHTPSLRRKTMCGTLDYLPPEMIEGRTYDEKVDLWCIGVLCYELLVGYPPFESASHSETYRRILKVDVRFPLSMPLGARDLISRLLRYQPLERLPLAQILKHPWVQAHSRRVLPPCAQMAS
Experimental: as §1

[4] = target: protein kinases of the Z-LYTE panel (Homo sapiens, UniProt P07333)
Experimental: as §1

[5] = target: protein kinases of the Z-LYTE panel (Homo sapiens, UniProt P42345)
Experimental: as §1

[6] = target: protein kinases of the Z-LYTE panel (Homo sapiens, UniProt Q8N4C8)
Experimental: as §1

[7] = target: T2, protein kinases of the Z-LYTE panel (Homo sapiens, UniProt P51955)
T2 sequence (P51955 1-445): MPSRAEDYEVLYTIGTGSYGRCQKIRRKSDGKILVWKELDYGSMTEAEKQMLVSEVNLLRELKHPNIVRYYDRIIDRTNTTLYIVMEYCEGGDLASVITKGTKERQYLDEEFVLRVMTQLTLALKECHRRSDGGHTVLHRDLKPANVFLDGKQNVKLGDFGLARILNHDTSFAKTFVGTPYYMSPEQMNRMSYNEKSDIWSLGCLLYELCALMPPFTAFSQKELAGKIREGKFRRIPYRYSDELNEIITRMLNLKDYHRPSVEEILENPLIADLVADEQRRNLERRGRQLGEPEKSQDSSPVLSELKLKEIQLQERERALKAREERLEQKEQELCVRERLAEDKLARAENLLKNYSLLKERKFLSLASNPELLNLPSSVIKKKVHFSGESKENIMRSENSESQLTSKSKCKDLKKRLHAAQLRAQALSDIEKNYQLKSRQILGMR
Experimental: as §1

[8] = target: protein kinases of the Z-LYTE panel (Homo sapiens, UniProt P35968)
Experimental: as §1

[9] = target: protein kinases of the Z-LYTE panel (Homo sapiens, UniProt O75582)
Experimental: as §1

[10] = target: protein kinases of the Z-LYTE panel (Homo sapiens, UniProt Q9H792)
Experimental: as §1

[11] = target: protein kinases of the Z-LYTE panel (Homo sapiens, UniProt P49840)
Experimental: as §1

Sequence of protein kinases of the Z-LYTE panel (Homo sapiens, UniProt Q8N4C8) (Q8N4C8 whole entry): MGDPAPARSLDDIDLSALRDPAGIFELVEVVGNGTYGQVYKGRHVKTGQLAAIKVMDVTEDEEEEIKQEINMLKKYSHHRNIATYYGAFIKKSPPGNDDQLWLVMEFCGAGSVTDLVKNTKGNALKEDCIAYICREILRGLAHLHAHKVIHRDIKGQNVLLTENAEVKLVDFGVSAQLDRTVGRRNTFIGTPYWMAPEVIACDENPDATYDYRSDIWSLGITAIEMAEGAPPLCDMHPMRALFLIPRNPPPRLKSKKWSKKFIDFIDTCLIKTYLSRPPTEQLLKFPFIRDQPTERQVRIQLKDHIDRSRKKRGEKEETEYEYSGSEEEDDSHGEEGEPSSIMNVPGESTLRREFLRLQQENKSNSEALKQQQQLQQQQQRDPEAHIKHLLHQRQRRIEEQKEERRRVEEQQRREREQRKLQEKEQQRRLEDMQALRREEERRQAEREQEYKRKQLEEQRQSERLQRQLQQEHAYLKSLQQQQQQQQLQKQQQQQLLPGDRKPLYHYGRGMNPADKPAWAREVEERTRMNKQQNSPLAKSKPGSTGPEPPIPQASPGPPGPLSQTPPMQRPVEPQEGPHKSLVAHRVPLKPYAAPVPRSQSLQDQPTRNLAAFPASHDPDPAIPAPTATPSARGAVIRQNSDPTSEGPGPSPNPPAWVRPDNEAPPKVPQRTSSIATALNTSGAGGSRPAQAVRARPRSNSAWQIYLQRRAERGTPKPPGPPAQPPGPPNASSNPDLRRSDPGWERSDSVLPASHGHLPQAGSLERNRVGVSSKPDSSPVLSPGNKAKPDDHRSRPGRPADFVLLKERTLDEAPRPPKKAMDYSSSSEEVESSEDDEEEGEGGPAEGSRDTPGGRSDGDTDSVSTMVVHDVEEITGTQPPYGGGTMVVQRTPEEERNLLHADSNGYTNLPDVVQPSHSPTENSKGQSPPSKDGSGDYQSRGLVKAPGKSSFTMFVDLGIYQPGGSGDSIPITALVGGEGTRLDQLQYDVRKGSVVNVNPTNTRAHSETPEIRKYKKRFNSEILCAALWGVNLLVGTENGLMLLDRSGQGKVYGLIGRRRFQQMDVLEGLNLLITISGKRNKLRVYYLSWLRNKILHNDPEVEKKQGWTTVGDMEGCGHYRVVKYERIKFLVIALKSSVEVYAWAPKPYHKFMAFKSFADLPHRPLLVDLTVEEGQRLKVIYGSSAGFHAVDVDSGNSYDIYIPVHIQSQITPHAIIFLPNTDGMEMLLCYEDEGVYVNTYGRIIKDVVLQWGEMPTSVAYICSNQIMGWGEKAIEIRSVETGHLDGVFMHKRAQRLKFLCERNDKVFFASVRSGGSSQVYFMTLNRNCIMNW
Sequence of protein kinases of the Z-LYTE panel (Homo sapiens, UniProt P23458) (P23458 whole entry): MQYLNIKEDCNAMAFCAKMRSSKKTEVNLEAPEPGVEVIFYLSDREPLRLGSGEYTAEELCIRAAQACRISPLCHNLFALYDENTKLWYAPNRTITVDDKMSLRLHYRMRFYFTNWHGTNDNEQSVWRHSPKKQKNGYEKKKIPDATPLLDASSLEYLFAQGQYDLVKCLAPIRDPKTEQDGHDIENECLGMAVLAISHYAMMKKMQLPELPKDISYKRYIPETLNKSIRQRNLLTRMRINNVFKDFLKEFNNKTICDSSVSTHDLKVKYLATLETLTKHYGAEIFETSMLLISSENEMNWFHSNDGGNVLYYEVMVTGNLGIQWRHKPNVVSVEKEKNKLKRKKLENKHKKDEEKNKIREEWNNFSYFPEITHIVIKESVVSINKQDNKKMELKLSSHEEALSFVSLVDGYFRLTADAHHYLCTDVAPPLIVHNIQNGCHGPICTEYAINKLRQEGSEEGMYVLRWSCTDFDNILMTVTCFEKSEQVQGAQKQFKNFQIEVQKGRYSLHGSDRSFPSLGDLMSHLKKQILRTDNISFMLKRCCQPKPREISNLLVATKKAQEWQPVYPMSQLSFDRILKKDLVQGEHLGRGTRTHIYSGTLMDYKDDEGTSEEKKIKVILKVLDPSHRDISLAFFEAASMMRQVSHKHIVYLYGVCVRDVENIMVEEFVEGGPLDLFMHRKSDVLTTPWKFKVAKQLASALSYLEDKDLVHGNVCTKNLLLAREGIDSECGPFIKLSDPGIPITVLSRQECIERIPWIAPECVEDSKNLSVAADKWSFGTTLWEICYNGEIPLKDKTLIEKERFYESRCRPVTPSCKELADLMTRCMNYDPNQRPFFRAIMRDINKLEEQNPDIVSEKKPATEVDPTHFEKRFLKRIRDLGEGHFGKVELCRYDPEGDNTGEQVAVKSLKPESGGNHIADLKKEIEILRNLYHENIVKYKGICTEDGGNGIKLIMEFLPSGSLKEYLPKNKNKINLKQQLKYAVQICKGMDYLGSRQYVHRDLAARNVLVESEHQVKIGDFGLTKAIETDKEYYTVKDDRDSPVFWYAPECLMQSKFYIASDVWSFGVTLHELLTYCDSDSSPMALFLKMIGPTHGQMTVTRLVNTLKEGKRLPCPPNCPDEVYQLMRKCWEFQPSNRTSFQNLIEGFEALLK
Sequence of protein kinases of the Z-LYTE panel (Homo sapiens, UniProt P35968) (P35968 20-1356): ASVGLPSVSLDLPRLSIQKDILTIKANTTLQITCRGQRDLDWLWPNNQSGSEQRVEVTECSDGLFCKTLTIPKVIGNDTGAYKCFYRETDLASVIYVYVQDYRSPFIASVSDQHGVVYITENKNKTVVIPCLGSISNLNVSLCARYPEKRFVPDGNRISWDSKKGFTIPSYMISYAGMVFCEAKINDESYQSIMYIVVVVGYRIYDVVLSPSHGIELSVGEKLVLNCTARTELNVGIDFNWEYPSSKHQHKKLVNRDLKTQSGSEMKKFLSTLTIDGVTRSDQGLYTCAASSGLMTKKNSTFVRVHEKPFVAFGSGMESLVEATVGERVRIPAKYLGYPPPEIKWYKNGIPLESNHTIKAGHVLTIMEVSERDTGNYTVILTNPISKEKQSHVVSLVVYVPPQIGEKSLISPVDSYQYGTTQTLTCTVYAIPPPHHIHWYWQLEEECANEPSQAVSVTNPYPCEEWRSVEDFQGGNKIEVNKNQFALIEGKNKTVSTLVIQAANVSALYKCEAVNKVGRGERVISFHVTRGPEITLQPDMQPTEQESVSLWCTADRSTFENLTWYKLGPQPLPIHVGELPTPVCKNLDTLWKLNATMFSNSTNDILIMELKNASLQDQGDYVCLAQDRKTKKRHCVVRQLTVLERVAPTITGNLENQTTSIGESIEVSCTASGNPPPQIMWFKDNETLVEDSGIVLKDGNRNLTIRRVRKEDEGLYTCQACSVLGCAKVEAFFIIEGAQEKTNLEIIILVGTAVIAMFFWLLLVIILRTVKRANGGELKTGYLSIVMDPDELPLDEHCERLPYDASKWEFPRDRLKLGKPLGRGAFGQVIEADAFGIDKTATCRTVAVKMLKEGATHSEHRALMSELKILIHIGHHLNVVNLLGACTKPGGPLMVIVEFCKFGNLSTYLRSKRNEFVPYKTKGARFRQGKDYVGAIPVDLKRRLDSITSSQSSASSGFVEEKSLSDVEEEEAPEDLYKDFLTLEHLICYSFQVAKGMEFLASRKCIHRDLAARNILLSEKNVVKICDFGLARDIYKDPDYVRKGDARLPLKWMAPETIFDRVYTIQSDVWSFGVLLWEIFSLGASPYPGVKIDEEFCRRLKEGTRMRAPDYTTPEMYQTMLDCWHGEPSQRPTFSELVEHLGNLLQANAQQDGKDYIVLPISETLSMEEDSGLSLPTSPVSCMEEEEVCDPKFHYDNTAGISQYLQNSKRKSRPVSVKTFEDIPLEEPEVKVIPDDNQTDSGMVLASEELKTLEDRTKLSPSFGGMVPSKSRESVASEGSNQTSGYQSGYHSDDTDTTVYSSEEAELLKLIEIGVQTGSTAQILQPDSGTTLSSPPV
Sequence of protein kinases of the Z-LYTE panel (Homo sapiens, UniProt P07333) (P07333 20-972): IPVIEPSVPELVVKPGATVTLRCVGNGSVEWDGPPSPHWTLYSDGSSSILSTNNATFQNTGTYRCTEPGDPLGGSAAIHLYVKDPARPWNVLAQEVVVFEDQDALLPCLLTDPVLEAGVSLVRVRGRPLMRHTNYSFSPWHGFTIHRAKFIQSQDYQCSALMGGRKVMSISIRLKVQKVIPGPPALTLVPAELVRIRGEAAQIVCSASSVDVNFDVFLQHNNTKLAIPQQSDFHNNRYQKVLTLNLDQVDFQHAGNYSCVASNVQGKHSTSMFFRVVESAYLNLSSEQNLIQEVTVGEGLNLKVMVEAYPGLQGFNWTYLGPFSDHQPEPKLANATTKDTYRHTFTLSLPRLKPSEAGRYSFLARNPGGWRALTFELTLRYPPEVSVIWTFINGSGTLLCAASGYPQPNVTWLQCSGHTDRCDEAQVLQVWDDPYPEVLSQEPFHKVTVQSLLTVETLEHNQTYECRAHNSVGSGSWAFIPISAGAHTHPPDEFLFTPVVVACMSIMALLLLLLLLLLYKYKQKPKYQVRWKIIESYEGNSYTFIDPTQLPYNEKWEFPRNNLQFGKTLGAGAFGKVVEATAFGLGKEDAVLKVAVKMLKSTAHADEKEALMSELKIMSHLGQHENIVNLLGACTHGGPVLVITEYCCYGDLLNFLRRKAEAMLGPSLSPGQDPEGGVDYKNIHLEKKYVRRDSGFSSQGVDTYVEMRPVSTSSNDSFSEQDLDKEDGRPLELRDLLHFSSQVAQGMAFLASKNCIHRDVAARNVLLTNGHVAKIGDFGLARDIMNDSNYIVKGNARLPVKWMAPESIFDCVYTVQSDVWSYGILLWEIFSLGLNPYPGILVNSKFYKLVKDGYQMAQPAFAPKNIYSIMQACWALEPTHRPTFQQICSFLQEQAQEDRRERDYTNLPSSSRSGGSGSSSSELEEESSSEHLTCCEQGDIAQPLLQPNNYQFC

## CCN1CCN(c2ccc(Nc3cc(Nc4cccc5c4N(C(C)=O)CC5)ccn3)cc2)CC1 [Compound 1938]
[1]; read-out: % Inhibition Point 1
  inhibition at 1 µM: 11%
[1]; read-out: % Inhibition Point 2
  inhibition at 1 µM: 9%
[1]; read-out: % Inhibition mean
  inhibition at 1 µM: 10%
[2]; read-out: % Inhibition Point 1
  inhibition at 1 µM: -2%
[2]; read-out: % Inhibition Point 2
  inhibition at 1 µM: -2%
[2]; read-out: % Inhibition mean
  inhibition at 1 µM: -2%
[3]; read-out: % Inhibition Point 1
  inhibition at 1 µM: 39%
[3]; read-out: % Inhibition Point 2
  inhibition at 1 µM: 35%
[3]; read-out: % Inhibition mean
  inhibition at 1 µM: 37%
[4]; read-out: % Inhibition Point 1
  inhibition at 1 µM: 15%
[4]; read-out: % Inhibition Point 2
  inhibition at 1 µM: 15%
[4]; read-out: % Inhibition mean
  inhibition at 1 µM: 15%
[5]; read-out: % Inhibition Point 1
  inhibition at 1 µM: -3.66%
[5]; read-out: % Inhibition Point 2
  inhibition at 1 µM: -2.5%
[5]; read-out: % Inhibition mean
  inhibition at 1 µM: -3%
[6]; read-out: % Inhibition Point 1
  inhibition at 1 µM: 28%
[6]; read-out: % Inhibition Point 2
  inhibition at 1 µM: 31%
[6]; read-out: % Inhibition mean
  inhibition at 1 µM: 30%
[7]; read-out: % Inhibition Point 1
  inhibition at 1 µM: -6%
[7]; read-out: % Inhibition Point 2
  inhibition at 1 µM: -5%
[7]; read-out: % Inhibition mean
  inhibition at 1 µM: -5.54%
[8]; read-out: % Inhibition Point 1
  inhibition at 1 µM: 10%
[8]; read-out: % Inhibition Point 2
  inhibition at 1 µM: 6.41%
[8]; read-out: % Inhibition mean
  inhibition at 1 µM: 8%
[9]; read-out: % Inhibition Point 1
  inhibition at 1 µM: 1.64%
[9]; read-out: % Inhibition Point 2
  inhibition at 1 µM: 4%
[9]; read-out: % Inhibition mean
  inhibition at 1 µM: 3%
[10]; read-out: % Inhibition Point 1
  inhibition at 1 µM: 25%
[10]; read-out: % Inhibition Point 2
  inhibition at 1 µM: 18%
[10]; read-out: % Inhibition mean
  inhibition at 1 µM: 21%
[11]; read-out: % Inhibition Point 1
  inhibition at 1 µM: 0.632%
[11]; read-out: % Inhibition Point 2
  inhibition at 1 µM: 0.0257%
[11]; read-out: % Inhibition mean
  inhibition at 1 µM: 0.329%
